Starred links: 1 amine or outer side, 2 acyl side, 3 side chain; linkers in the order of their positions; H or OH if unused. Positions of bridges follow the written chain, without caps; N, C: chain ends. Non-standard residues stand in square brackets, D forms with d. Residues, ends and D or L forms follow the SMILES beside them. X1 = O=C(O)CCCCCCCCCCCCCCCCCCC(=O)N[C@@H](CCCCNC(=O)COCCOCCNC(=O)COCCOCCNC(=O)CCC(=O)N(CCNC(=O)C[*:1])CCNC(=O)C[*:2])C(=O)O; NMeR = CN[C@@H](CCCNC(=N)N)C(=O)O; hArg = N=C(N)NCCCC[C@H](N)C(=O)O; αMeK = C[C@](N)(CCCCN)C(=O)O; Aib = CC(C)(N)C(=O)O

Our source for the EC50 values is patent US20260337245A1, “POLYPEPTIDE OR ANALOG THEREOF AND USE THEREOF” (Shenzhen Bay Laboratory, priority 2024, published 2026).

The target in experiment [1] is T1, CTR (Homo sapiens, UniProt P30988).
T1 construct: expressed in transfected cells
T1 sequence (P30988 25-474): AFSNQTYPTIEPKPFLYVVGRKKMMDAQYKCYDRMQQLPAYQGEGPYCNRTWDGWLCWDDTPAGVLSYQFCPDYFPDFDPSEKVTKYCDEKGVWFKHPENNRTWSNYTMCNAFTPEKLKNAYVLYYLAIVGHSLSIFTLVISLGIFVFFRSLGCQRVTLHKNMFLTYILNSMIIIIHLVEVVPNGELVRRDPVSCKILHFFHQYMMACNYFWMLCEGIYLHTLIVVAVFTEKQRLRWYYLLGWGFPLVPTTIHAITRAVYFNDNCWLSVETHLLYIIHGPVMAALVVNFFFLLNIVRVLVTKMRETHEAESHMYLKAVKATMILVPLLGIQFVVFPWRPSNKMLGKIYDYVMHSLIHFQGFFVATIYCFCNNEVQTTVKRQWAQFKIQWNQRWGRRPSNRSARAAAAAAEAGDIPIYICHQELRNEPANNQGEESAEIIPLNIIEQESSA
Put plainly: HTRF cAMP assay, CTR. It is filed as cell-based. The note with it: HEK293/pGM-CREB-L-Luc/CTR pool, read-out: IC50 of receptor CTR. The source says:
(§1) 2. The polypeptide derivatives prepared in Example 1 and Example 2 of the present disclosure can bind to the target AMYR and CTR receptors on the cell membrane, activate the receptors and release cAMP. Therefore, the activity of the analyte can be determined by using an HTRF (homogeneous time-resolved fluorescence) method and using a cAMP detection kit. The specific steps were as follows:
(§2) A stable transfected cell line of HEK293/pGM-CREB-L-Luc/AMY3R pool and HEK293/pGM-CREB-L-Luc/CTR pool was constructed. The polypeptide derivatives (i.e., AMY-001 to AMY-041) prepared in Examples 1 and 2 were subjected to 5-fold serial dilution from a maximum of 1000 nM to prepare a dilution series containing 8 to 11 concentration gradients. Cagrilintide and sCT were selected as positive controls for testing, and a dilution series was prepared according to the same method for testing. The test cell lines were selected and treated with cAMP-specific trypsin for digestion, and then suspended with 3 mL of serum-free DMEM medium by pipetting, and the cells were counted. 5 μL of IBMX (prepared with serum-free DMEM medium, 0.5 mM) and test cells (5 μL/7500 cells/well) were sequentially added to a 384-well plate, incubated under the conditions of 37° C., 5% CO2 for 30 minutes, then added with cAMP-d2 (5 μL, 1×) and Anti-cAMP-Cryptate (5 μL, 1×) and placed at room temperature for 1 hour. A HTRF value was determined by a chemiluminescence microplate reader, and the results were recorded. An activation curve was plotted using GraphPad Prism software to calculate an IC50 value of each polypeptide derivative. […] The IC50 values of some polypeptides were exemplarily shown in this example, see Table 3, FIG. 2 and FIG. 3 for details.

Experiment [2] addresses T2, AMY3R (Homo sapiens, UniProt P30988).
T2 construct: expressed in transfected cells
T2 sequence (P30988 25-474): T1 sequence (P30988 25-474)
T2 sequence (O60896 24-148 partner): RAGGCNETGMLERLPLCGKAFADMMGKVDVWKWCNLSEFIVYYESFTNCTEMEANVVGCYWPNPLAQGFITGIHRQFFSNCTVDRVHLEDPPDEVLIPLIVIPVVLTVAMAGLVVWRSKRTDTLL
Put plainly: HTRF cAMP assay, AMY3R. It is filed as cell-based. The note with it: HEK293/pGM-CREB-L-Luc/AMY3R pool, read-out: IC50 of receptor AMY3R.
Description: as §1, §2

Consider `CC(=O)N[C@@H](C)C(=O)N[C@@H](CO)C(=O)N[C@@H](Cc1c[nH]cn1)C(=O)N[C@@H](CC(C)C)C(=O)N[C@@H](CO)C(=O)N[C@H](C(=O)N[C@@H](C)C(=O)N[C@H]1CSCC(=O)NCCN(C(=O)CCC(=O)NCCOCCOCC(=O)NCCOCCOCC(=O)NCCCC[C@H](NC(=O)CCCCCCCCCCCCCCCCCCC(=O)O)C(=O)O)CCNC(=O)CSC[C@@H](C(=O)N[C@@H](CC(C)C)C(=O)N[C@@H](Cc2c[nH]cn2)C(=O)N[C@@](C)(CCCCN)C(=O)N[C@@H](CC(C)C)C(=O)NC(C)(C)C(=O)N[C@@H](CC(=O)O)C(=O)N[C@@H](Cc2ccc(O)cc2)C(=O)N2CCC[C@H]2C(=O)N(C)[C@@H](CCCNC(=N)N)C(=O)N[C@H](C(=O)N[C@@H](CC(=O)O)C(=O)N[C@H](C(=O)NCC(=O)N[C@@H](C)C(=O)NCC(=O)N[C@@H](CO)C(=O)N2CCC[C@H]2C(N)=O)C(C)C)[C@@H](C)O)NC(=O)[C@H](C)NC(=O)[C@H](CO)NC(=O)[C@H](CC(C)C)NC(=O)[C@H](CCCCNC(=N)N)NC(=O)CNC(=O)[C@H](CC(C)C)NC1=O)[C@@H](C)O` [AMY-012, Ac-ASHLSTACLG-homoR-LSACLH-(αMeK)-L-Aib-DYP-(N-Me-R)-TDVGAGSP-NH2] (Ac-ASHLSTACLG[hArg]LSACLH[αMeK]L[Aib]DYP[NMeR]TDVGAGSP-NH2; linker 8-15 via X1), for which the EC50 is 0.0357 nM in experiment [1] and 0.0133 nM in experiment [2].

Consider `CC(=O)N[C@@H](C)C(=O)N[C@@H](CO)C(=O)N[C@@H](Cc1c[nH]cn1)C(=O)N[C@@H](CC(C)C)C(=O)N[C@@H](CO)C(=O)N[C@H](C(=O)N[C@@H](C)C(=O)N[C@H](C(=O)N[C@@H](CC(C)C)C(=O)NCC(=O)N[C@@H](CCCNC(=N)N)C(=O)N[C@@H](CC(C)C)C(=O)N[C@H]1CSCC(=O)NCCN(C(=O)CCC(=O)NCCOCCOCC(=O)NCCOCCOCC(=O)NCCCC[C@H](NC(=O)CCCCCCCCCCCCCCCCCCC(=O)O)C(=O)O)CCNC(=O)CSC[C@@H](C(=O)N[C@@H](CC(=O)O)C(=O)N[C@@H](Cc2ccc(O)cc2)C(=O)N2CCC[C@H]2C(=O)N[C@@H](CCCNC(=N)N)C(=O)N[C@H](C(=O)N[C@@H](CC(=O)O)C(=O)N[C@H](C(=O)NCC(=O)N[C@@H](C)C(=O)NCC(=O)N[C@@H](CO)C(=O)N2CCC[C@H]2C(N)=O)C(C)C)[C@@H](C)O)NC(=O)[C@H](CC(C)C)NC(=O)[C@H](CCCCN)NC(=O)[C@H](Cc2c[nH]cn2)NC(=O)[C@H](CC(C)C)NC(=O)[C@H](CCC(=O)O)NC(=O)[C@H](C)NC1=O)C(C)C)[C@@H](C)O` [AMY-008] (Ac-ASHLSTAVLGRLCAELHKLCDYPRTDVGAGSP-NH2; linker 13-20 via X1), for which the EC50 worked out at 0.0502 nM in experiment [1] and 0.0713 nM in experiment [2].

`CC(=O)N[C@@H](C)C(=O)N[C@@H](CO)C(=O)N[C@@H](Cc1c[nH]cn1)C(=O)N[C@@H](CC(C)C)C(=O)N[C@@H](CO)C(=O)N[C@H](C(=O)N[C@@H](C)C(=O)N[C@H](C(=O)N[C@@H](CC(C)C)C(=O)NCC(=O)N[C@H]1CCCCNC(=O)CN(C(=O)COCCOCCNC(=O)CC[C@H](NC(=O)CCCCCCCCCCCCCCCCCCC(=O)O)C(=O)O)CC(=O)NCCCC[C@@H](C(=O)N[C@@H](CC(C)C)C(=O)NC(C)(C)C(=O)N[C@@H](CC(=O)O)C(=O)N[C@@H](Cc2ccc(O)cc2)C(=O)N2CCC[C@H]2C(=O)N[C@@H](CCC(N)=O)C(=O)N[C@H](C(=O)N[C@@H](CC(=O)O)C(=O)N[C@H](C(=O)NCC(=O)N[C@@H](C)C(=O)NCC(=O)N[C@@H](CO)C(=O)N2C[C@H](O)C[C@H]2C(N)=O)C(C)C)[C@@H](C)O)NC(=O)[C@H](Cc2c[nH]cn2)NC(=O)[C@H](CC(C)C)NC(=O)[C@H](CCC(=O)O)NC(=O)[C@H](C)NC(=O)[C@H](CO)NC(=O)[C@H](CC(C)C)NC1=O)C(C)C)[C@@H](C)O` [AMY-022, Ac-ASHLSTAVLGKLSAELHKL-Aib-DYPQTDVGAGS-Hyp-NH2]: the values for the EC50 in experiment [1] and in experiment [2] were 0.102 nM and 0.0679 nM, respectively.

Regarding `CC(=O)N[C@@H](C)C(=O)N[C@@H](CO)C(=O)N[C@@H](Cc1c[nH]cn1)C(=O)N[C@@H](CC(C)C)C(=O)N[C@@H](CO)C(=O)N[C@H](C(=O)N[C@H]1CSCC(=O)NCCN(C(=O)CCC(=O)NCCOCCOCC(=O)NCCOCCOCC(=O)NCCCC[C@H](NC(=O)CCCCCCCCCCCCCCCCCCC(=O)O)C(=O)O)CCNC(=O)CSC[C@@H](C(=O)N[C@@H](CCC(=O)O)C(=O)N[C@@H](CC(C)C)C(=O)N[C@@H](Cc2c[nH]cn2)C(=O)N[C@@H](CCCCN)C(=O)N[C@@H](CC(C)C)C(=O)NC(C)(C)C(=O)N[C@@H](CC(=O)O)C(=O)N[C@@H](Cc2ccc(O)cc2)C(=O)N2CCC[C@H]2C(=O)N[C@@H](CCCNC(=N)N)C(=O)N[C@H](C(=O)N[C@@H](CC(=O)O)C(=O)N[C@H](C(=O)NCC(=O)N[C@@H](C)C(=O)NCC(=O)N[C@@H](CO)C(=O)N2CCC[C@H]2C(N)=O)C(C)C)[C@@H](C)O)NC(=O)[C@H](CO)NC(=O)[C@H](CC(C)C)NC(=O)[C@H](CCCNC(=N)N)NC(=O)CNC(=O)[C@H](CC(C)C)NC(=O)[C@H](C(C)C)NC1=O)[C@@H](C)O` [AMY-002, Ac ASHLSTCVLGRLSCELHKL-Aib-DYPRTDVGAGSP-NH2] (Ac-ASHLSTCVLGRLSCELHKL[Aib]DYPRTDVGAGSP-NH2; linker 7-14 via X1), the EC50 in experiment [1] is 0.0906 nM; in experiment [2], 0.0671 nM.

As for `CC(=O)N[C@@H](C)C(=O)N[C@@H](CO)C(=O)N[C@@H](Cc1c[nH]cn1)C(=O)N[C@@H](CC(C)C)C(=O)N[C@@H](CO)C(=O)N[C@H](C(=O)N[C@@H](C)C(=O)N[C@H](C(=O)N[C@@H](CC(C)C)C(=O)NCC(=O)N[C@@H](CCCNC(=N)N)C(=O)N[C@H]1CSCC(=O)NCCN(C(=O)CCC(=O)NCCOCCOCC(=O)NCCOCCOCC(=O)NCCCC[C@H](NC(=O)CCCCCCCCCCCCCCCCCCC(=O)O)C(=O)O)CCNC(=O)CSC[C@@H](C(=O)NC(C)(C)C(=O)N[C@@H](CC(=O)O)C(=O)N[C@@H](Cc2ccc(O)cc2)C(=O)N2CCC[C@H]2C(=O)N[C@@H](CCCNC(=N)N)C(=O)N[C@H](C(=O)N[C@@H](CC(=O)O)C(=O)N[C@H](C(=O)NCC(=O)N[C@@H](C)C(=O)NCC(=O)N[C@@H](CO)C(=O)N2CCC[C@H]2C(N)=O)C(C)C)[C@@H](C)O)NC(=O)[C@H](CCCCN)NC(=O)[C@H](Cc2c[nH]cn2)NC(=O)[C@H](CC(C)C)NC(=O)[C@H](CCC(=O)O)NC(=O)[C@H](C)NC(=O)[C@H](CO)NC1=O)C(C)C)[C@@H](C)O` [AMY-007, Ac-ASHLSTAVLGRCSAELHKC-Aib-DYPRTDVGAGSP-NH2] (Ac-ASHLSTAVLGRCSAELHKC[Aib]DYPRTDVGAGSP-NH2; linker 12-19 via X1), the EC50 in experiment [1] was 0.262 nM; in experiment [2], 0.349 nM.
